Key:
[1] = target: T1, minke whale NIS (wNIS) (Balaenoptera acutorostrata, UniProt A0A384B8D1); test: inhibition of […]mTcO4 uptake in transduced HeLa cells; type: cell-based
T1 sequence (A0A384B8D1 1-642): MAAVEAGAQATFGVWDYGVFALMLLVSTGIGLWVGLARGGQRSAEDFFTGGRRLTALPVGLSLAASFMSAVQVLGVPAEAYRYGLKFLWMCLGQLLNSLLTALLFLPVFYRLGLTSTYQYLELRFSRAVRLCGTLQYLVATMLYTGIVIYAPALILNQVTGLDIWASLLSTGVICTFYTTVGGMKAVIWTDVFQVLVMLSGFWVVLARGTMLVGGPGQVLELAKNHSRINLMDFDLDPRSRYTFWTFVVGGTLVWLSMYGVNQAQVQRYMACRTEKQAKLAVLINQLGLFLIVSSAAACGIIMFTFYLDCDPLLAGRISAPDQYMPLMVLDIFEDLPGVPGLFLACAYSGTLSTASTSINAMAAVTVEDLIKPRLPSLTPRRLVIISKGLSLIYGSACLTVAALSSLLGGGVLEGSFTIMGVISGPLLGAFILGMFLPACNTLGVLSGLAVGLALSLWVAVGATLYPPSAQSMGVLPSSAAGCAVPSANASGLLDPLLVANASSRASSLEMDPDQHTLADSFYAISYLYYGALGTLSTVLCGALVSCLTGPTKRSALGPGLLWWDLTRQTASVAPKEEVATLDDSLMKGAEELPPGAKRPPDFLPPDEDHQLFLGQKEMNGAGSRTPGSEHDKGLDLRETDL

[2] = target: T2, human NIS (hNIS) (Homo sapiens, UniProt Q92911); test: as above; type: cell-based
T2 sequence (Q92911 1-643): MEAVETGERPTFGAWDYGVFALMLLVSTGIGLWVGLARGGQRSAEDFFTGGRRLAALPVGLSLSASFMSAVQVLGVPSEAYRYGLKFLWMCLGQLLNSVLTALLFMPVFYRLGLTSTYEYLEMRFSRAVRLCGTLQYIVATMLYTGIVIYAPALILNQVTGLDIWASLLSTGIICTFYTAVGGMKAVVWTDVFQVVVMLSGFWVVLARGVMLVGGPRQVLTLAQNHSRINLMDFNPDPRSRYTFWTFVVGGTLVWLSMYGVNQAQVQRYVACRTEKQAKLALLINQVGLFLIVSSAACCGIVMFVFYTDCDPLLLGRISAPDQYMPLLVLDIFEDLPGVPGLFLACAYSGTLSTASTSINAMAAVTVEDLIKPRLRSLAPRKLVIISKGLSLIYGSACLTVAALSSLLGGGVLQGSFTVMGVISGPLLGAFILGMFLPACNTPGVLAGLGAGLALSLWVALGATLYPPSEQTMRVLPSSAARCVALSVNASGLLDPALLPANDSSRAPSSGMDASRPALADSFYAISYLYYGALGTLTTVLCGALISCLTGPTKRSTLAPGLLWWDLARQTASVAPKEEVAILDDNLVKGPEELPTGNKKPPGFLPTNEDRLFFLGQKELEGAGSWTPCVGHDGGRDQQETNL

[O-][Cl+3]([O-])([O-])O [perchlorate]
IC50 [1]: 2.86 µM | IC50 [2]: 0.195 µM

— publication PMC7791078 (Molecular Therapy, 2020)
